Test [1] relates to post-confluent NHEK cells. Kind of test: Growth of re-cultured post-confluent (cell-cell contact growth arrested) NHEK's. The format is cell-based, human.
Test [2] in a line: Canine case studies: age-related pathologies and tumour observations. The format is in vivo, dog. Here is the method: In 2017, a […] (D.O.B Jan. 5, 2008) female Lhasa Apso/Jack Russell/Shih Tzu cross-breed (confirmed by genetic breed analysis: DNA-My-Dog) with a body mass of 9 Kg, was treated with 0.6 gm/day of 22.2% Fenbendazole (Panacur® granules) which was given orally for 3 consecutive days/week for 1 month and this cycle was repeated every 3rd month giving 4 cycles/annum providing a total of 16×1 month treatment cycles spread over a period of 4 yrs up to the present day.
In 2017, a 4 yr old Jack Russell/Poodle/Maltese cross-breed (Confirmed by genetic breed analysis: DNA-My-Dog) with a body mass of 9.2 Kg was treated with 1.0 gm/day of 22.2% Fenbendazole Panacur® granules for 3 days per week and 4 days without. The dosing schedule of 3 days with, 4 days without treatment per week was continued for 3 months after which the dose was reduced to 0.6 gm/day of Panacur® and treatment alternated between 1 month with and 1 month without for 19 months providing a total of 11×1 month treatment cycles over the whole time period. After this, treatment was discontinued for 2 years and 5 months up to 12 May 2022 when a cheek swab was taken for analysis of biological age and this was repeated 5 months later on the 30 Sep. 2022.
The initial reason for treating this animal was that it had been diagnosed with an anal sac adenocarcinoma and, at the time, it was decided to explore the use of Fenbendazole as an alternative treatment. […] Subject C2B's birth date was May 2014 giving a chronological age of 8 yrs which was verified by microchip implantation date using the Petlog database. Following the outlined treatment with Fenbendazole, in April 2022, a cheek epithelium swab was sent to DNA-My-Dog for assessment of breed composition and biological age by analysis of breed-specific telomere length. The result, returned on the 12 May 2022, reported a biological age of 1 yr old indicating a reduction in biological age of 7 yrs. which is equivalent to ˜90% reduction in biological age. […] After a further gap of 5 months without treatment, on the 30 Sep. […] However, unlike subject C2A, no treatment was given during this period so the most likely explanation is that the efficacy time-limit of the initial treatment has been exceeded.

The nature of test [3]: Rat 4 month medicated feed study: mortality and appetite. The format is in vivo, Sprague-Dawley rats. From the text: Seventy-eight Sprague-Dawley rats aged either 16 or 22 months were maintained with daily 12-hour light/dark cycles and allowed constant access to feed and water. The animals were bred and housed at the Cantacuzino National Medico-Military Institute for Research and Development, Bucharest 050096, Romania. These animals were split into 3 separate groups of 26, each containing the same number of younger and older animals, which were then given the following feeds prepared by Altromin Spezialfutter GmbH & Co. for a period of 4 months: • (A) Control maintenance feed plus standard multivitamin supplement (No API's) • (B) Formulation (A) plus 80 mg/Kilo of Fenbendazole. • (C) Formulation (B) plus 12.5 mg/Kilo Tadalafil. A buccal swab was then taken from each animal using an OracollectDNA OCR-100 sampling device (DNA Genotek, Canada). DNA was extracted using a DNeasy® Blood & Tissue Kit (Qiagen UK, Cat No 69505) which was checked for purity and quantified with a QuickDrop Spectrophotometer (Molecular Devices, Model 504 7178). This material was then used to analyse relative telomere length as described in section 1.6 except that the Relative Rat Telomere Length Quantification qPCR Assay Kit (ScienCell Research Labs, Catalog No. R8908) was used. Five consecutive samples from each of the three treatment groups were analysed on each 96 well PCR plate to minimize any inter-plate variability.

Broadly, the mortality is the percentage killed. Regarding `COC(=O)Nc1nc2ccc(Sc3ccccc3)cc2[nH]1` [Fenbendazole, methyl 5-(phenylthio)-2-benzimidazole carbamate], in test [1] (treatment P3-P5 only, withdrawn following passage 6, 5 days, FIG. 5), the “number of viable cells (Via-1 Assay) following withdrawal of drug” value is recorded as 9.7×10^4 cells/ml. Further, the “number of viable cells (Via-1 Assay)” value in test [1] (treatment continued for passages P3-P6, 5 days after passage 6, FIG. 5) is listed as 9.5×10^4 cells/ml. In addition, in test [2] (dog C2A, during 4 yr treatment), the “body weight and physical activity” value is “significant weight-loss and increased physical activity”; the growth of teeth result was “activation of new growth of teeth”; the “skin conditions / subcutaneous lesions” value was “normalization of skin and regression of subcutaneous lipoma like lesions”. Moreover, in test [2] (dog C2B), the “persistence of anti-ageing effects after treatment is discontinued” value is “at least 2 years” and the “visible signs of ageing” value is recorded as “does not show any visible signs of ageing”. The “anal sac adenocarcinoma tumour” value in test [2] (dog C2B, during treatment) is recorded as “regressed”. For the same molecule, in test [3] (4 months medicated feed), the appetite versus control entry is listed as “greater”. Also, the surviving animals in test [3] (after 4 months of medicated feed, groups of 26 rats aged 16 or 22 months, control 18) is 23. In addition, in test [3] (after 4 months of medicated feed, control 30.7%), the mortality stood at 11.5%.

The values are drawn from US20250352518A1, “A BENZIMIDAZOLE COMPOUND WITH ANTIHELMINTHIC ACTIVITY FOR USE IN REVERSING, ARRESTING OR SLOWING DOWN CELLULAR AGEING IN A VERTEBRATE SUBJECT” (RAVAN BIO LIMITED, priority 2022, published 2025).
